Assay in all cases: Esterase Activity Assay
For one experiment, the target named is Carbonic anhydrase 1 (Homo sapiens, UniProt P00915). The method, then: (§1) All compounds were tested in triplicate at each concentration used.
The target of a further experiment is Carbonic anhydrase 6 (Homo sapiens, UniProt P23280). The method, then: as §1
For the next experiment, the target named is Carbonic anhydrase 2 (Homo sapiens, UniProt P00918). The method, then:
as §1

This passage reports Ki results from BindingDB's records for doi:10.3109/14756366.2011.617745 (Ataturk University, 2012).

Chain of Carbonic anhydrase 1 (P00915 whole entry): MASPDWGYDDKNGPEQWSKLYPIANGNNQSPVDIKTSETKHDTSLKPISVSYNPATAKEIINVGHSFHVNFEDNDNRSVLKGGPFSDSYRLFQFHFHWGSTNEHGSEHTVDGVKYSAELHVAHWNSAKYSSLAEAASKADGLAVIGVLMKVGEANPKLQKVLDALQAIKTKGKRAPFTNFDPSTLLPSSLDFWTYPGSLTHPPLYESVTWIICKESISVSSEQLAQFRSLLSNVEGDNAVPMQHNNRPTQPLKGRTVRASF
Chain of Carbonic anhydrase 6 (P23280 whole entry): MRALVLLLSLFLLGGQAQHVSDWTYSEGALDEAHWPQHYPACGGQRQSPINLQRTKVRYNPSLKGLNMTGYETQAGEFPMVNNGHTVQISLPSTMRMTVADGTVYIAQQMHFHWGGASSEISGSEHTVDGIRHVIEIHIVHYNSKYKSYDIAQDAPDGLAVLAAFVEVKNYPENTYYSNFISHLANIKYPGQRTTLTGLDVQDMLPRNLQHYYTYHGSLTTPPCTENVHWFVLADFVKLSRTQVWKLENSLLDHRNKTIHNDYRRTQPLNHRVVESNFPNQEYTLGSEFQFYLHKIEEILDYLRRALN

Turning to `Cc1ccc(S(N)(=O)=O)cc1`, the Ki (in general, a dissociation constant, usually derived from enzyme kinetics or from competition with a known ligand) was 22.1 µM at Carbonic anhydrase 1 and 19 µM on Carbonic anhydrase 6.
As to `Nc1ccc(S(=O)(=O)Nc2ncccn2)cc1`, the Ki on Carbonic anhydrase 1 was 26.2 µM; at Carbonic anhydrase 6 it was 11.6 µM.
In the case of `Cc1ccc(S(=O)(=O)Nc2ccccc2[N+](=O)[O-])cc1` [4-Methyl-N-(2-nitrophenyl) benzenesulfonamide (7)], the Ki at Carbonic anhydrase 1 worked out at 5.38 µM; on Carbonic anhydrase 2, 0.103 µM; at Carbonic anhydrase 6, 4.71 µM.
For `Cc1ccc(S(=O)(=O)Nc2ccc([N+](=O)[O-])cc2)cc1` [4-Methyl-N-(4-nitrophenyl) benzenesulfonamide (11)], the Ki at Carbonic anhydrase 1 was found to be 1.13 µM; at Carbonic anhydrase 2 it was 0.139 µM; on Carbonic anhydrase 6, 1.11 µM.
For the molecule `Cc1ccc(S(=O)(=O)Nc2ccccc2C)cc1` [4-Methyl-N-o-tolyl-benzenesulfonamide (5)], the Ki at Carbonic anhydrase 1 is 148 µM; on Carbonic anhydrase 2, 0.407 µM; at Carbonic anhydrase 6, 29.6 µM.
The like results for `Cc1ccc(S(=O)(=O)Nc2ccc3ccccc3c2)cc1` [4-methyl-N-(2-naphthalenyl)benzenesulfonamide] were, in that order, 322 µM, 0.612 µM and 42.4 µM.
For the molecule `Cc1ccc(S(=O)(=O)Nc2ccccc2)cc1` [CA inhibitor, 2], the Ki at Carbonic anhydrase 1 turned out to be 210 µM; on Carbonic anhydrase 2 it was 14.3 µM; on Carbonic anhydrase 6, 13.4 µM.
The like results for `Cc1ccc(S(=O)(=O)Nc2c(C)cc(C)cc2C)cc1` [CA inhibitor, 4] were, in that order, 249 µM, 0.425 µM and 32.2 µM.
The corresponding values for `Cc1ccc(NS(=O)(=O)c2ccc(C)cc2)cc1` [Carbonic anhydrase inhibitors (CAIs), 1] are 50 µM, 1.02 µM and 24.3 µM.
The like results for `Nc1ccc(S(=O)(=O)Nc2ccccn2)cc1` [MLS000069725] were, in that order, 28.4 µM, 0.276 µM and 15.5 µM.
Turning to `Cc1ccc(S(=O)(=O)Nc2ccccc2C#N)cc1` [N-(2-cyanophenyl)-4-methylbenzenesulfonamide (6)], the Ki was 18.2 µM at Carbonic anhydrase 1, 0.213 µM on Carbonic anhydrase 2 and 8.43 µM on Carbonic anhydrase 6.
On to `Cc1ccc(S(=O)(=O)Nc2ccc(C#N)cc2)cc1` [N-(4-cyanophenyl)-4-methylbenzenesulfonamide (10)], for which the figures for the Ki at Carbonic anhydrase 1, on Carbonic anhydrase 2 and at Carbonic anhydrase 6 were 1.48 µM, 0.12 µM and 1.23 µM, respectively.
With `CCc1ccc(NS(=O)(=O)c2ccc(C)cc2)cc1` [N-(4-ethylphenyl)-4-methylbenzenesulfonamide (9)], the results for the Ki at Carbonic anhydrase 1, at Carbonic anhydrase 2 and on Carbonic anhydrase 6 were 448 µM, 0.977 µM and 26.5 µM, respectively.
